Measurements published in patent US20220387344A1, “COMPOSITIONS AND METHODS FOR INHIBITING COLLAGEN LOSS” (LYCORED LTD., priority 2019, published 2022).
One block for each molecule: values may come before it.

How the values were obtained:
[1] = Plasma carotenoids after Lumenato capsules (bioavailability); assay type: in vivo; conditions: delivered within Lumenato capsules, plasma at 1, 2, 3 and 4 weeks post administration
From the text: The inventors have examined the bioavailability of carotenoids delivered within Lumenato capsules. The following carotenoids were quantified in the plasma at 1 week, 2 weeks, 3 weeks, and 4 weeks post administration. Phytoene, phytofluene and zeta-carotene which are the main carotenoids in Lumenato (the golden tomato extract) were absorbed well (FIG. 15).

[2] = system: human neutrophils; experiment: MPO activity of TNFα-activated neutrophils incubated overnight with single or combined phytonutrients; assay type: cell-based; conditions: sole addition
Method: 100 μl of 37° C. O-dianisidine hydrochloride solution (1 mg O-dianisidine, 10 ml phosphate buffer pH 6.0+0.0015% H2O2) were added to 100 μl supernatant in a 96-well plate immediately before the optical density was followed by the change of absorbance at 450 nm at 2 minute intervals on a Thermomax Microplate Reader (Molecular Devices, Melno Park, Calif.).
Tocopherol and phytosterol were added to 5×10^5 human neutrophils 20 min before addition of 100 ng/ml TNFα and maintained overnight at 37° C. in a humidified atmosphere containing 5% CO2. MPO activity was measured in the supernatant of the cultured neutrophils.
Zeta carotene, phytoene, tocopherol, phytosterol, or combinations thereof, were added to 5×10^5 human neutrophils 20 min before addition of 100 ng/ml TNFα and maintained overnight at 37° C. in humidified atmosphere containing 5% CO2. MPO activity was measured as escribed above.
The inventors examined the effect of multiple phytonutrients on MPO activity in stimulated neutrophils. The sole addition of tocopherol or phytosterol had no effect on the release and activity of MPO from neutrophils activated with TNFα (FIGS. 13A-13B).
The inventors also examined the effect of adding zeta carotene with either phytoene, a tocopherol, or a phytosterol, on MPO activity. […]

[3] = system: human neutrophils; experiment: MMP-9 secretion from stimulated human neutrophils (ELISA); assay type: cell-based; conditions: agonist alone
Method: (§1) Blood was drawn from healthy volunteers. Neutrophils, at 95% purity were obtained by Ficoll-Hypaque centrifugation, dextran sedimentation, and hypotonic lysis of erythrocytes within 1 hour after blood was drawn. Cells were counted and their viability was determined by trypan blue exclusion. Human MMP-9 concentrations in cell culture supernatants were quantified by ELISA kits (R&D systems Minneapolis, Minn., USA). […] Neutrophils were activated by 100 ng/ml TNFα or 100 ng/ml IL8 that are released from the skin cells during exposure to UV and activated. In addition, neutrophils were activated with […] for comparison.

[4] = system: human neutrophils; experiment: MPO secretion from stimulated human neutrophils; assay type: cell-based; conditions: agonist alone
Method: as §1, with “100 μl of 37° C. O-dianisidine hydrochloride solution (1 mg O-dianisidine, 10 ml phosphate buffer pH 6.0+0.0015% H2O2) were added to 100 μl supernatant” for “Human MMP-9 concentrations”, “a 96-well plate immediately before the optical density was followed” for “cell culture supernatants were quantified”, “the change of absorbance at 450 nm at 2 minute intervals on a Thermomax Microplate Reader (Molecular Devices, Melno Park, Calif.).” for “ELISA kits (R&D systems Minneapolis, Minn., USA).”

[5] = system: NHDF cells; experiment: Collagen 1a1 secretion by NHDF cells under H2O2 oxidative stress (ELISA); assay type: cell-based, human; conditions: 50 μM H2O2
Method: Cells were incubated with Lumenato for 24 h and then hydrogen peroxide (H2O2) was added, and cells were incubated for additional 24 h to induce oxidative stress. The incubation medium was collected and the levels of collagen 1 a 1 protein secretion to the medium were analyzed using a specific ELISA detection kit.

[6] = system: KERTr human keratinocytes; experiment: Viability of KERTr keratinocytes under H2O2 oxidative stress (XTT); assay type: cell-based; conditions: H2O2 alone
Method: (§2) The inventors used hydrogen peroxide, H2O2, to induce oxidative stress in KERTr human keratinocytes, and analyzed the effects on cell number (cell death) and the secretion of MMP1. Cells viability was determined using the XTT cell proliferation kit, and MMP1 levels were measured by ELISA.

[7] = system: KERTr human keratinocytes; experiment: MMP1 secretion by KERTr keratinocytes under H2O2 oxidative stress (ELISA); assay type: cell-based; conditions: H2O2 alone
Method: as §2

[8] = 2 hr of activation, TNFα or IL8 100 ng/ml

absorption (plasma concentration) [1]: absorbed well
Molecule: CC(C)=CCC/C(C)=C/CC/C(C)=C/CC/C(C)=C/C=C/C=C(\C)CC/C=C(\C)CC/C=C(\C)CCC=C(C)C [phytoene]

absorption (plasma concentration) [1]: absorbed well
Molecule: CC(C)=CCC/C(C)=C/CC/C(C)=C/C=C/C(C)=C/C=C/C=C(\C)CC/C=C(\C)CC/C=C(\C)CCC=C(C)C [phytofluene]

absorption (plasma concentration) ([1]; listed as Zeta carotene): absorbed extremely well | absorption (plasma concentration) ([1]; listed as zeta-carotene): absorbed well
Molecule: CC(C)=CCC/C(C)=C/CC\C(C)=C/C=C/C(C)=C/C=C/C=C(C)/C=C/C=C(/C)CC/C=C(\C)CCC=C(C)C [zeta carotene]

Molecule: tocopherol
effect on release and activity of MPO [2]: no effect

Molecule: IL8: interleukin 8, agonist used to stimulate neutrophils
release of MMP-9 [3, 8]: 9.12 ± 0.2 ng/mL | release of MMP-9 ([3]; 4 hr of activation): 17.86 ± 0.4 ng/mL | release of MPO ([4]; 4 h of activation): 0.4 ± 0.08 ng/mL

Molecule: formyl-Methionine-Leucine-Phenylalanine [fMLP]
release of MMP-9 ([3]; 30 min of activation): 10.41 ± 0.4 ng/mL | release of MMP-9 ([3]; 4 hr of activation): 13.45 ± 0.3 ng/mL | release of MPO ([4]; 30 min of activation): 0.54 ± 0.004 ng/mL

Molecule: phytosterol
effect on release and activity of MPO [2]: no effect

Molecule: OO [H2O2, hydrogen peroxide]
reduction in collagen 1a1 secretion [5]: about 10 fold | cell number (cell death) [6]: dose dependent cell death | secretion of MMP1 [7]: increased secretion of MMP1

Molecule: TNFα
release of MMP-9 [3, 8]: 16.52 ± 0.5 ng/mL | release of MPO ([4]; 4 h of activation): 0.28 ± 0.001 ng/mL
